How the values were obtained:
[1] = system: human alpha 1-antitrypsin reporter gene expression; experiment: Serum level of human α1-antitrypsin reporter after adenovirus administration (Example 2); format: in vivo; set-up: average serum level of human α1-antitrypsin: unit not given here; settings: NMRI mice
Procedure: (§1) On day 0, all mice were administered-a dose of 1×10^10 adenoviruses via the tail vein. The recombinant adenoviruses carry the gene for human alpha 1-antitrypsin as a reporter gene found in the serum. This gene has proven to be a practicable reporter, since it is not antigenic in the mouse, but nevertheless can be differentiated from murine alpha 1-antitrypsin using a specific antibody. The half-life of the antiprotease is approximately 3-4 days, so that the serum level reflects the current synthesis capacity of the liver very well.
(§2) The total collective was subdivided into five groups of 4 animals each, which were treated as follows: • 1st group: control group—no immunosuppressant treatment, administration of saline solution i.p. for the period of 5 days after virus administration. • 2nd . group: FK 506 group—administration of 1 mg/kg/day of FK 506 i.p. beginning 1 day before virus administration and then for a period of 5 days. • 3rd group: cyclosporin A group—administration of 20 mg/kg/day i.p. beginning 1 day before virus administration and then for a period of 5 days. • 4th group: DSG group—administration of 10 mg/kg/day i.p. beginning 1 day before virus administration and then for the period of 5 days. • 5th group: DSG++ group—administration of 10 mg/kg/day i.p. beginning 1 day before virus administration and then daily for the period of five days and then twice weekly for the period of 150 days.
(§3) NMRI mice were used, since these mice, due to their genetic heterogeneity, develop an immunological reaction pattern which approaches that of a human population more closely than pure inbred strains; the price is an increased variability in the immunological reactivity. In spite of this, the individual groups develop significant reaction patterns.

[2] = system: antibodies after recombinant adenovirus vector administration; experiment: Formation of antibodies after vector administration (Example 1); format: in vivo; settings: mice; cyclosporin A 50-100 mg/kg/day, DSG 10 mg/kg/day for 21 days after recombinant adenovirus
Procedure: Cyclosporin A (50-100 mg/kg/day) and DSG (10 mg/kg/day) was administered to the mice over a period of 21 days after administration of a recombinant adenovirus (reporter gene β-galactosidase; Bett et al. Proc. Natl. Acad. Sci. USA, 91 (1994), pages 8802-8806).
In the control group, it was possible to detect the formation of antibodies even 5 days after vector administration.

[3] = system: antibody load against viral proteins; experiment: Mean antibody titer against viral proteins after adenovirus administration (Example 2); format: in vivo; settings: NMRI mice
Procedure: as §1, §2, §3
The quantitative factor 15 days after discontinuing DSG is approximately 1.8. Continuous treatment (2× weekly) is no longer able to increase this effect dramatically. […] Even the transient administration of DSG reduces the antibody response in comparison with the control by more than 60% with, at the same time, a markedly positive effect on expression.

[4] = system: reporter gene β-galactosidase expression in the liver; experiment: Reporter gene (β-galactosidase) expression in the liver after recombinant adenovirus administration (Example 1); format: in vivo, mice
[5] = day 5, i.p. from 1 day before virus then for 5 days (FK 506 1, cyclosporin A 20, DSG 10 mg/kg/day)
[6] = day 10, i.p. from 1 day before virus then for 5 days (FK 506 1, cyclosporin A 20, DSG 10 mg/kg/day)
[7] = day 20, i.p. from 1 day before virus then for 5 days (FK 506 1, cyclosporin A 20, DSG 10 mg/kg/day)
[8] = day 30, DSG++ group: 10 mg/kg/day i.p. from 1 day before virus, daily for five days, then twice weekly for 150 days
[9] = day 30, i.p. from 1 day before virus then for 5 days (FK 506 1, cyclosporin A 20, DSG 10 mg/kg/day)
[10] = day 60, i.p. from 1 day before virus then for 5 days (FK 506 1, cyclosporin A 20, DSG 10 mg/kg/day)
[11] = day 100, DSG++ group: 10 mg/kg/day i.p. from 1 day before virus, daily for five days, then twice weekly for 150 days
[12] = day 100, i.p. from 1 day before virus then for 5 days (FK 506 1, cyclosporin A 20, DSG 10 mg/kg/day)
[13] = day 150, DSG++ group: 10 mg/kg/day i.p. from 1 day before virus, daily for five days, then twice weekly for 150 days
[14] = day 150, i.p. from 1 day before virus then for 5 days (FK 506 1, cyclosporin A 20, DSG 10 mg/kg/day)
[15] = day 200, DSG++ group: 10 mg/kg/day i.p. from 1 day before virus, daily for five days, then twice weekly for 150 days
[16] = day 200, i.p. from 1 day before virus then for 5 days (FK 506 1, cyclosporin A 20, DSG 10 mg/kg/day)
[17] = mice treated with DSG only for 5 days after vector administration, 42nd day after vector administration

Cl.Cl.Cl.N=C(N)NCCCCCCC(=O)NC(O)C(=O)NCCCCNCCCN (stereo not shown) [DSG, 1-amino-19-guanidine-11-hydroxy-4,9,12-triazanondecane-10,13-dione trihydrochloride]
effect on antitrypsin expression ([1]; 5-day treatment with DSG): marked increase and prolongation of antitrypsin expression
quantitative factor (transgenic expression product of immunosuppressed group / nonimmunosuppressed control group) ([1]; 15 days after discontinuing DSG (5-day treatment, 10 mg/kg/day i.p.)): approximately 1.8
expression with continuous treatment compared with transient administration ([1]; continuous DSG treatment (2× weekly) versus transient administration): only slightly increased
average serum level of human α1-antitrypsin ([1]; day 5, DSG++ group: 10 mg/kg/day i.p. from 1 day before virus, daily for five days, then twice weekly for 150 days): 2775000
average serum level of human α1-antitrypsin [1, 5]: 2775000
average serum level of human α1-antitrypsin ([1]; day 10, DSG++ group: 10 mg/kg/day i.p. from 1 day before virus, daily for five days, then twice weekly for 150 days): 677500
average serum level of human α1-antitrypsin [1, 6]: 1560000
average serum level of human α1-antitrypsin ([1]; day 20, DSG++ group: 10 mg/kg/day i.p. from 1 day before virus, daily for five days, then twice weekly for 150 days): 1178750
average serum level of human α1-antitrypsin [1, 7]: 1826250
average serum level of human α1-antitrypsin [1, 8]: 1082500
average serum level of human α1-antitrypsin [1, 9]: 1001250
average serum level of human α1-antitrypsin ([1]; day 60, DSG++ group: 10 mg/kg/day i.p. from 1 day before virus, daily for five days, then twice weekly for 150 days): 297500
average serum level of human α1-antitrypsin [1, 10]: 213500
average serum level of human α1-antitrypsin [1, 11]: 68750
average serum level of human α1-antitrypsin [1, 12]: 51750
average serum level of human α1-antitrypsin [1, 13]: 17125
average serum level of human α1-antitrypsin [1, 14]: 13125
average serum level of human α1-antitrypsin [1, 15]: 14350
average serum level of human α1-antitrypsin [1, 16]: 10625
antibody production [2]: completely eliminated
reduction of antibody load against viral proteins ([3]; continuous DSG treatment (2× weekly), after 150 days): approximately 90%
Mean antibody titer [3, 8]: 13005
Mean antibody titer [3, 9]: 26310
Mean antibody titer [3, 11]: 11251
Mean antibody titer [3, 12]: 31029
Mean antibody titer [3, 13]: 7335
Mean antibody titer [3, 14]: 25149
Mean antibody titer [3, 15]: 9669
Mean antibody titer [3, 16]: 20586
reduction of antibody response in comparison with the control ([3]; transient administration of DSG (5 days)): more than 60%
proportion of animals with expression still measurable [4, 17]: approximately 50%
reporter gene expression relative to the maximal expression [4, 17]: approximately 10%
reporter gene expression after discontinuing the immunosuppressants ([4]; mice, 21 days after discontinuing 21-day treatment (42 days after vector administration)): a massive gene expression was still detectable
reporter gene expression in the liver over the treatment period ([4]; mice, cyclosporin A 50-100 mg/kg/day, DSG 10 mg/kg/day for 21 days after recombinant adenovirus, treatment period of 21 days): continues undecreased

C=CC[C@@H]1/C=C(\C)C[C@H](C)C[C@H](OC)[C@H]2O[C@@](O)(C(=O)C(=O)N3CCCC[C@H]3C(=O)O[C@H](/C(C)=C/[C@@H]3CC[C@@H](O)[C@H](OC)C3)[C@H](C)[C@@H](O)CC1=O)[C@H](C)C[C@@H]2OC [FK 506]
average serum level of human α1-antitrypsin [1, 5]: 1725000
average serum level of human α1-antitrypsin [1, 6]: 1278750
average serum level of human α1-antitrypsin [1, 7]: 376250
average serum level of human α1-antitrypsin [1, 9]: 17475
average serum level of human α1-antitrypsin [1, 10]: 4258
average serum level of human α1-antitrypsin [1, 12]: 313
average serum level of human α1-antitrypsin [1, 14]: 1.5
average serum level of human α1-antitrypsin [1, 16]: 1.5
Mean antibody titer [3, 9]: 65536
Mean antibody titer [3, 12]: 43832
Mean antibody titer [3, 14]: 25149
Mean antibody titer [3, 16]: 17710
